Each structure is given as a SMILES string. The source made the active and inactive calls. Cut-off read from the data, not from the text of the source: actives have a measured IC50 and inactives only a lower limit.

The IC50 is the concentration at which inhibition is half-maximal.

Sequence of Envelope glycoprotein gp160 (Q6QLK5 whole entry, the tested form may be a part): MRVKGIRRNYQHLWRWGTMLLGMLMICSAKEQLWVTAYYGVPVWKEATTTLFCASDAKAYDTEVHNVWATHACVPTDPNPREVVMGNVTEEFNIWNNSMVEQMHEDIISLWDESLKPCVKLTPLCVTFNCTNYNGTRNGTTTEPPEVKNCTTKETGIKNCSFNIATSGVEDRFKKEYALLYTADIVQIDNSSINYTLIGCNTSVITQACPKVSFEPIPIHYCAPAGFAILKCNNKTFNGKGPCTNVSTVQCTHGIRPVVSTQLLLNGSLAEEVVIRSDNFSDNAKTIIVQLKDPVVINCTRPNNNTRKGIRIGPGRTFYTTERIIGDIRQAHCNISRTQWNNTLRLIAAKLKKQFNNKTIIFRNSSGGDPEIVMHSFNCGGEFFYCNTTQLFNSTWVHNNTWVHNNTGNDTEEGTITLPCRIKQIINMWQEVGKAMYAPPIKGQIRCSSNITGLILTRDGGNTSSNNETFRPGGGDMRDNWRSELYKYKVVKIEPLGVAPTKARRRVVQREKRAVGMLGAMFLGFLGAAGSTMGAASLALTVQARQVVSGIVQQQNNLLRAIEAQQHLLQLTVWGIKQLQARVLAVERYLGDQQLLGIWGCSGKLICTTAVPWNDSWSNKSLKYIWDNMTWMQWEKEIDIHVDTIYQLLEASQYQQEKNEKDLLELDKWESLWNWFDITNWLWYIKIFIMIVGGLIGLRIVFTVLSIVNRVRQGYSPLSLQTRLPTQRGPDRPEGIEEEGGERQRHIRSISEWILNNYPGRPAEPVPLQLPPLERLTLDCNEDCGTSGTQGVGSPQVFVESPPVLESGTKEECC

The assay concerns the target Envelope glycoprotein gp160 (Human immunodeficiency virus 1, UniProt Q6QLK5). The assay can be described thus: cell-free HIV fusion peptide-binding blockers – biochemical, uHTS, fluorescence dequenching, […] (AID 1986).
`O=C(NCCc1ccccc1)c1ccc2c(=O)[nH]c3c(C(=O)NCC4CCCO4)sc(=S)n3c2c1` (centres undefined): the IC50 is 27.8 µM (active).
On to `CCOc1cc(/C=C2\C(=O)N(c3cccc(C(=O)O)c3)N=C2C(F)(F)F)ccc1OCC(=O)Nc1ccccc1OC`, for which the IC50 was 3.88 µM (active).
The result for `COc1ccc(-c2cc(-c3ccc(Cl)cc3)c(C#N)c(SCC(=O)O)n2)cc1` reads 19.4 µM (active).
The result for `O=C(O)c1ccc(/C=N/NC(=O)c2ccc(CN3c4cccc5cccc(c45)S3(=O)=O)cc2)cc1` reads 19.7 µM (active).
